# Assay results published in US8642593B2, “2,4-pyrimidinediamine compounds and prodrugs and their uses” (Rigel Pharmaceuticals, Inc., priority 2009, dated 2014).
# Columns and labels:
# KDR/VEGFR2 enzyme = molecular target: T1, KDR/VEGFR2 enzyme (Homo sapiens, UniProt P35968); test: Biochemical VEGFR Assay (ELISA); details: Table 2, unit inferred; read-out: Biochem VEGFR2
# T1 construct: purchased Millipore #14-630
# Description: Compounds are tested for the ability to inhibit VEGF2 in an ELISA assay. […] Plates are then washed with 1×PBST using a plate washer, then blocked with 2% BSA in 1×PBST (100 μL/well) for 1 hr at room temperature. The NeutrAvidin-coated plates are again washed with 1×PBST using a plate washer.
# The mixed test compound/reaction solutions are added to the wells of the NeutrAvidin-coated plates (50 μL/well). 6× enzyme solution (1000 parts kinase buffer, 0.6 parts KDR/VEGFR2 enzyme (50 μg/mL, Millipore, #14-630) is added to all wells except those designated as negative controls. The plates are incubated for 30 minutes on a shaker at room temperature.
# The detection reagent is added at 100 μL/well, and the plates are incubated for 60 minutes at room temperature, then washed with 1×PBST using a plate washer.
# Syk kinase = molecular target: T2, Syk kinase (Homo sapiens, UniProt P43405); test: Fluorescence Polarization Syk kinase assay; type: biochemical; details: for IC50: Table 2, unit inferred, read-out: FP-based Biochem Syk; for potency compared with the control, biochemical assay: vs control compound
# T2 construct: purchased Millipore #14-314
# Description: Compounds are tested for the ability to inhibit Syk kinase catalyzed phosphorylation of a peptide substrate in a biochemical fluorescence polarization assay with isolated Syk kinase.
# Test compound stock solutions (10 mM) containing are serially diluted in DMSO starting from 2.5 mM and then further diluted to desired concentration of 50 μM (5×) to yield 2% DMSO concentration in kinase buffer (20 mM HEPES, pH 7.4, 5 mM MgCl2, 2 mM MnCl2, 1 mM DTT, 0.1 mg/mL acetylated Bovine Gamma Globulin). The assay is carried out in a black 96 well low volume plate (Molecular Devices, #42-000-0117) by transferring compound in 2% DMSO (0.4% DMSO final) pre-mixed with ATP/substrate (TK2 peptide) in kinase buffer at room temperature. Syk kinase (Millipore, #14-314) is added to a final reaction volume of 20 μL, and the reaction is incubated for 30 minutes at room temperature. […] The reaction is stopped by addition of 20 μL of PTK quench mix containing EDTA (10 mM final)/anti-phosphotyrosine antibody (1× final)/fluorescent phosphopeptide tracer (0.5× final) diluted in FP dilution buffer to stop the reaction to a total volume of 40 μL according to the manufacturer's instructions (Invitrogen). The plate is incubated in the dark for additional 30 minutes at room temperature and then read on a Polarion fluorescence polarization plate reader (Tecan). Data are converted to amount of phosphopeptide present using a calibration curve generated by competition with the phosphopeptide competitor provided in the Tyrosine Kinase Assay Kit, Green (Invitrogen, #P2837).
# [1] = molecular target: T3, VEGF-induced phosphorylation of VEGFR in HUVEC cells (Homo sapiens, UniProt P35968); test: Cellular VEGFR Assay; type: cell-based; details: for IC50: HUVEC cells, Table 2, unit inferred, read-out: Cellular VEGFR2; for selectivity against VEGF as compared to the control: vs control compound
# T3 construct: VEGF-induced phosphorylation of VEGFR in HUVEC cells; host or cells: HUVEC cells
# Description: The coated plates are then blocked with 2% BSA in PBS for 2 hours.
# Cells are washed 1× with PBS. 100 μL starvation medium (EBM2 media, Cambrex, #CC3156, containing 1% BSA and 0.2% FBS) is added and cells are returned to the incubator for 20-24 hours. Test compounds or control drugs are serially diluted in DMSO in a compound plate and further diluted 1:250 in starvation medium. 100 μL, of this 2× concentration is dosed to the cells. […] Plates are then placed on a rocker/shaker at 4° C. for 1 hour.
# Phosphorylated VEGFR2 is determined by ELISA. After a wash with TBST, 30 μL/well of the cell lysate is transferred into the anti-human VEGFR2 mAb-coated plates (described above) containing 200 μL/well of 1% BSA in PBS, and incubated with shaking at 4° C. overnight. […] The signal is read using a SpectraMax M5 plate reader.
# Ret kinase = molecular target: T4, Ret kinase (Homo sapiens, UniProt P07949); test: Biochemical Ret Assay (ELISA-based); details: for IC50: Table 2, unit inferred, read-out: Biochem Ret; for selectivity over Ret kinase compared with the control: vs control compound
# T4 construct: purchased Millipore #14-570
# T4 sequence (P07949 658-1114 limits assumed): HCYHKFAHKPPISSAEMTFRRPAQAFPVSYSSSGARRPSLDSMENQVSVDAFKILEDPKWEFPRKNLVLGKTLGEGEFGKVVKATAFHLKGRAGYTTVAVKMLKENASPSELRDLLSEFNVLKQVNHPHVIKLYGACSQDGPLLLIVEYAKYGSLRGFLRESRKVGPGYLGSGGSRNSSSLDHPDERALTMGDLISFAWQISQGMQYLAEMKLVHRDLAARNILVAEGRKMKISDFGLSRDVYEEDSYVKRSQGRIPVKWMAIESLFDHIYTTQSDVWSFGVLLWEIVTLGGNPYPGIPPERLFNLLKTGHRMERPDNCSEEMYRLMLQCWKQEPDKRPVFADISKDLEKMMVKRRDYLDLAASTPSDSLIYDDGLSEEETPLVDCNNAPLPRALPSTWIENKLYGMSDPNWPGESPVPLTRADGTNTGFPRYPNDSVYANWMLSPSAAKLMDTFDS
# Description: Compounds are tested for the ability to inhibit Ret kinase in an ELISA-based assay. The assay is carried out in a Costar white 96 well plate (Fisher Scientific, #07-200-591) coated overnight with 0.01 mg/mL NeutrAvidin (Pierce, 100 μL/well) at 4° C. The pre-coated 96 well plate is blocked with 2% BSA in PBST buffer for at least 1 h at room temperature before starting the assay. Serially diluted test compound stock solution is prepared separately in DMSO solution starting from 300 μM, and 2 μL/well of this diluted compound (3% DMSO final concentration) is added directly to the NeutrAvidin coated assay plate containing 55.5 μL/well of kinase reaction buffer (20 mM HEPES, pH 7.4, 5 mM MgCl2, 1 mM DTT, 0.01% Brij-35) pre-mixed with ATP and kinase substrate (TK2 peptide). Reaction is initiated by adding 2.5 μL/well Ret kinase (Millipore, #14-570) resulting in a final reaction volume of […]. The reaction is allowed to continue for 30 minutes at room temperature. […] After completing the reaction, the wells are washed three times with PBST and incubated for 1 h at room temperature with 100 μL/well of phosphopeptide detection antibody solution (mixture of 1:10000 diluted mouse anti-pTyr monoclonal antibody (Cell Signal Technology, #9411) and 1:10000 diluted goat HRP-conjugated anti-mouse IgG (Jackson Immunoresearch, #115-035-003)). The plate is washed three times with PBST, developed with supersignal ELISA pico chemiluminescent substrate (Pierce), and read on a SpectraMax M5 microplate reader (Molecular Devices).
# T3 sequence (P35968 20-1356): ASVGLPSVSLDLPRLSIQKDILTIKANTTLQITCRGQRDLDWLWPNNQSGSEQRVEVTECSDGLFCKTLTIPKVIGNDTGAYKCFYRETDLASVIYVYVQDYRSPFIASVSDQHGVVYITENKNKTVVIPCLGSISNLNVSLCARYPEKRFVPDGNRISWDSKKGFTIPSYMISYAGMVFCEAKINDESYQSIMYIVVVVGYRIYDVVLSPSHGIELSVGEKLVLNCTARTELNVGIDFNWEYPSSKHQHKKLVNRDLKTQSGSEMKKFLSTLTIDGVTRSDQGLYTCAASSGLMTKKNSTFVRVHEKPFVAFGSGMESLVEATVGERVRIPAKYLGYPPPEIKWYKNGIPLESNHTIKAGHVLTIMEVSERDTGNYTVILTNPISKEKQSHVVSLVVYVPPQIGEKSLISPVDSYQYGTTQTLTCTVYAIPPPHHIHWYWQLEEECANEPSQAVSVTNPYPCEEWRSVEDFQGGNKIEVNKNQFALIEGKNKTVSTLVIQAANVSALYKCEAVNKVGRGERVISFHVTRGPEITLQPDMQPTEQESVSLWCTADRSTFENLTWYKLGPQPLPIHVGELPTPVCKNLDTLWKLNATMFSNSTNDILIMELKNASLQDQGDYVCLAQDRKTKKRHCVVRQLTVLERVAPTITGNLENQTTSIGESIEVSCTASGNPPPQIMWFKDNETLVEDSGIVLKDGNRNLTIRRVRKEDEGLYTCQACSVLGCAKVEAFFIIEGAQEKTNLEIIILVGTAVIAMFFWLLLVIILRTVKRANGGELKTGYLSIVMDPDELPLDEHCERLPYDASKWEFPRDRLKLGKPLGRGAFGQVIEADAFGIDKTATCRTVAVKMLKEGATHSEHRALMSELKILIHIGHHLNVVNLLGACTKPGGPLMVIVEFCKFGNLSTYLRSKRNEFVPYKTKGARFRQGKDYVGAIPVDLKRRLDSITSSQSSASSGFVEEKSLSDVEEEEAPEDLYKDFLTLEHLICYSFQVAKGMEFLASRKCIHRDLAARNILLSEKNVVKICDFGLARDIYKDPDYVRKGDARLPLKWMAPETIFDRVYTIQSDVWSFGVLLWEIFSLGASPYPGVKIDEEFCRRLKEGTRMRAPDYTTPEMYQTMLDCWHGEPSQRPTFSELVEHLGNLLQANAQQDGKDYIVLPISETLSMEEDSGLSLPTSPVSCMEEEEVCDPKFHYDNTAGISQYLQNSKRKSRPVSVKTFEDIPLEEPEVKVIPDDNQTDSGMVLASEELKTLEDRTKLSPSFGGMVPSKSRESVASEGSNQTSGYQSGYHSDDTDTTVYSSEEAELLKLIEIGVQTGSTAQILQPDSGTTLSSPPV
# T1 sequence (P35968 790-1356 limits assumed): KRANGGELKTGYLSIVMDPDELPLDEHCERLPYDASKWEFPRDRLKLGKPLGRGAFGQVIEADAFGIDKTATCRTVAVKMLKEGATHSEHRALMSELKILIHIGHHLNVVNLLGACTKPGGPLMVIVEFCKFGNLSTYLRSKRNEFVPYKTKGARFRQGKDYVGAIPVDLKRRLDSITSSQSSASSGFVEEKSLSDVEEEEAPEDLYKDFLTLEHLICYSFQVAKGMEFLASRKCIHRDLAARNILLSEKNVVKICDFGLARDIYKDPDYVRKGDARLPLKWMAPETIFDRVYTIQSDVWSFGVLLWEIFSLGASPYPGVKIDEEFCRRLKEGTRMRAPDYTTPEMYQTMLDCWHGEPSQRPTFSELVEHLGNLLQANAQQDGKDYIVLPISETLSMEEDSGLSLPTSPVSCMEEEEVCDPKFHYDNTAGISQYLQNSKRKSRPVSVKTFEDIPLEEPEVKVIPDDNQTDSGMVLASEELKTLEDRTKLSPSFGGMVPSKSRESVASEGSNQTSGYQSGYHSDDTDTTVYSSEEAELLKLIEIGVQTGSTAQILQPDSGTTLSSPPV
IC50 (KDR/VEGFR2 enzyme),IC50 (Syk kinase),"potency compared with the control, biochemical assay (Syk kinase)",IC50 [1],selectivity against VEGF as compared to the control [1],IC50 (Ret kinase),selectivity over Ret kinase compared with the control (Ret kinase),Structure (SMILES)
770 nM,40 nM,somewhat less potent than the control,16800 nM,significantly increased selectivity,48 nM,significantly more selective,"CC1(C)Oc2ccc(Nc3nc(Nc4ccc(N5CCOCC5)nc4)ncc3F)nc2NC1=O [Compound 1, N4-(2,2-Dimethyl-3-oxo-4H-5-pyrido[1,4]oxazin-6-yl)-5-fluoro-N2-[6-morpholinopyridin-3-yl]-2,4-pyrimidinediamine]"
340 nM,80 nM,somewhat less potent than the control,5230 nM,significantly increased selectivity,6 nM,significantly more selective,"CC1(C)Oc2ccc(Nc3nc(Nc4ccc(N5CCOCC5)cc4)ncc3F)nc2NC1=O [Compound 3, N4-(2,2-Dimethyl-3-oxo-4H-5-pyrido[1,4]oxazin-6-yl)-5-fluoro-N2-(4-morpholinophenyl)-2,4-pyrimidinediamine]"
